Tests used:
[1] = test system: tumor-specific CD8+ T cells; experiment: ELISPOT of tumor-specific IFN-γ-secreting CD8+ T cells from tumor draining lymph nodes after radiation; type: in vivo, mouse
Procedure: (§1) 1×10^6 MC38 tumor cells were subcutaneously injected into the flank of mice. Tumor volumes were measured along three orthogonal axes (a, b, and c) and calculated as tumor volume=abc/2. Tumors were allowed to grow for 9-10 days and treated by local radiation (Deng et al., 2014). Briefly, the body was protected with a lead cover and the tumor was exposed, allowing local radiation. Tumors were irradiated using RS-2000 Biological Irradiator (RAD SOURCE) at the dose of 20 Gy with 160 kV and 25 mA. For type I IFN blockade experiments, 200 μg anti-IFAR1 mAb was intratumorally injected on day 0 and 2 after radiation. For HMGB-1 blockade experiments, 200 μg anti-HMGB-1 mAb (clone 3B1, generated by inventors) was administered i.p. on day 0 and 3 after radiation. For CD8^+ T cell depletion experiments, […] anti-CD8 mAb (Clone 2.43, BioXCell) was delivered 5 times by i.p. injection every three days starting one day before radiation. For exogenous IFN-β treatment experiments, 1×10^10 viral particles of Ad-IFN-β (Burnette, B., et al., The Efficacy of Radiotherapy Relies upon Induction of Type I Interferon-Dependent Innate and Adaptive Immunity, Cancer Res Apr. 1, 2011 71; 2488; (doi: 10.1158/0008-5472.CAN-10-2820)) were intratumorally administered on day 2 after radiation. Ad-null was used as negative control. […]

MC38 tumors = experiment: MC38 tumor growth after local radiation in mice; type: in vivo, mouse; settings: 20 Gy, 10 μg intratumorally on day 2 and 6 after radiation, FIG. 21A, 21B
Procedure: as §1

BMDCs = experiment: BMDC cross-priming of 2C CD8+ T cells after stimulation with irradiated MC38-SIY tumor cells (IFN-γ ELISPOT); type: cell-based, mouse
Procedure: Single-cell suspensions of bone marrow cells were obtained from C57BL/6J, STING^−/− and IRF3^−/− mice. Bone marrow from cGAS^−/− mice was kindly provided by Dr. Zhijian J. Chen of University of Texas Southwestern Medical Center, Dallas. The cells were placed in 10 cm petri dish and cultured in RPMI-1640 medium containing 10% fetal bovine serum (DENVILLE), supplemented with 20 ng/ml GM-CSF. Fresh media with GM-CSF was added into culture on day 3. BMDCs (bone marrow-derived dendritic cells) were harvest for stimulation assay on day 7. 8×10^6 MC38-SIY^hi cells were plated into 10 cm cell culture dishes overnight, and then pretreated with 40 Gy and incubated for 5 hours. BMDCs were added and co-cultured with MC38-SIY^hi cells at the ratio of 1:1 in the presence of fresh GM-CSF for additional 8 hours. Subsequently purified CD11c cells with EasySep™ Mouse CD11c Positive Selection Kit II (STEMCELL) were incubated with isolated CD8^+ T cells from naive 2 C mice for three days. For the bypassing assay, 10 ng/ml murine IFN-β was added in the co-culture of BMDCs and tumor cells, or 100 μg/ml DMXAA was added into isolated CD11c^+ cells with additional 3 h incubation. For IFN-β detection, BMDCs were co-cultured with tumor cells at the ratio of 1:1 for additional 8 hours, and 1×10^6 cells/ml purified CD11c^+ cells were seed into 96-well plates for 48 hours.
For bone-marrow CD11c^+ cells functional assay, 2×10^4 purified CD11c^+ cells with were incubated with isolated CD8^+ T cells from naive 2 C mice with EasySep™ Mouse CD8a Positive Selection Kit (STEMCELL) for three days at the ratio of 1:10. For tumor-specific CD8^+ T cells functional assay, eight days after radiation, tumor DLNs were removed and CD8^+ T cells were purified. MC38 tumor cells were exposed to 20 ng/ml murine IFN-γ for 24 hr prior to plating with purified CD8^+ T. 2×10^5 CD8^+ T cells were incubated with MC38 at the ratio of 10:1 for 48 hours. 96-well HTS-IP plate (Millipore) was pre-coated with 2.5 μg/ml anti-IFN-γ antibody (clone R4-6A2, BD Pharmingen) overnight at 4° C. […]

IFNβ promoter = IFNβ promoter dual-luciferase reporter assay (IFNβ-Luc / pRL-SV40) in HEK293 cells; type: cell-based, human; settings: versus shNT, FIG. 6A
Text: To measure IFNβ promoter activity, HEK293 cells were transiently co-transfected using Fugene (Roche) with pGL3-Ifnβ-Luc (Lin R, Genin P, Mamane Y, & Hiscott J (2000) Selective DNA binding and association with the CREB binding protein coactivator contribute to differential activation of alpha/beta interferon genes by interferon regulatory factors 3 and 7. Molecular and cellular biology 20(17):6342-6353) and an expression plasmid carrying the Renilla luciferase gene driven by the SV40 promoter (Promega). […] The following day, cells were irradiated at indicated dose and collected at indicated time in passive lysis buffer (Promega). Firefly and Renilla luciferase activities were measured using a dual-luciferase assay system (Promega). For siRNAs experiments, siRNA against LGP2 (see above) or non-targeting (Dharmacon) were transfected with RNAimax 24 h prior to transfection of luciferase/Renilla plasmids. Mean luciferase values were normalized and quantified from duplicate runs for each of at least three separate experiments.
We next assessed the role of LGP2 in regulating the IR-induced IFNβ response. HEK293 cells were transduced with lentiviral shRNA to stably reduce the levels of LGP2 or control non-targeting (shNT). Stably transduced cells were co-transfected with IFNβ-Luc and pRL-SV40, mock-treated or exposed to 6 or 12 Gy and collected 72 hrs after IR.

Nc1nc2c(ncn2[C@@H]2O[C@@H]3COP(=O)(O)O[C@H]4[C@@H](O)[C@H](n5cnc6c(N)ncnc65)O[C@@H]4COP(=O)(O)O[C@@H]2[C@@H]3O)c(=O)[nH]1 [2′3′-cGAMP, cyclic [G(2′,5′)pA(3′,5′)p]]
antitumor CD8+ T cell response induced by the combination with radiation ([1]; STING−/− host, FIG. 21D): dampened | number of tumor-specific IFN-γ-producing CD8+ T cells in DLNs, combination with radiation ([1]; WT mice, 10 μg intratumorally on day 2 after 20 Gy, DLNs day 8, versus radiation or 2′3′-cGAMP alone, FIG. 21C): significantly increased | synergy with radiation on tumor burden (MC38 tumors; STING−/− mice): abrogated | tumor burden, combination with radiation (MC38 tumors; WT mice, versus either treatment alone): effectively reduce tumor burden

siRNA-cGAS: Mission siRNA against murine cGAS, 5′-GAGGAAAUCCGCUGAGUCAdTdT-3′ (SEQ ID NO:8), Sigma (GAGGAAAUCCGCUGAGUCADTDT; dTdT 3' overhang, further chemistry not given here)
function of DCs (cross-priming of CD8+ T cells) (BMDCs; BMDCs transfected with 50 nM siRNA, versus non-target control, stimulated with irradiated tumor cells, FIG. 19B): greatly diminished

LGP2 shRNA: lentiviral pLKO.1 shRNA against LGP2, SEQ ID NO:3 ATTCTTGCGGTCATCGAACAG, Thermo Scientific
IR-induced IFNβ reporter activity (IFNβ promoter; HEK293, 6 or 12 Gy, 72 hrs after IR): greatly increased | IFNβ reporter activity (IFNβ promoter; HEK293, mock-treated): significant increase

Cc1ccc2c(=O)c3cccc(CC(=O)O)c3oc2c1C [DMXAA]
function of STING−/− BMDCs (cross-priming of CD8+ T cells) (BMDCs; STING−/− BMDCs stimulated with irradiated tumor cells, 10 ng/ml IFN-β or 100 μg/ml DMXAA, FIG. 18C): fails to rescue | function of cGAS−/− BMDCs (cross-priming of CD8+ T cells) (BMDCs; cGAS−/− BMDCs stimulated with irradiated tumor cells, 10 ng/ml IFN-β or 100 μg/ml DMXAA, FIG. 19D): restored

— patent US10421971B2, “Anti-tumor therapy” (The University of Chicago, priority 2014, dated 2019)
